The text below walks through data of ChEMBL document CHEMBL5236605, “Design and synthesis of dual cathepsin L and S inhibitors and antimetastatic activity evaluation in pancreatic cancer cells” (Bioorg Med Chem Lett, 2023).

Each structure is given as a SMILES string. Activity calls are given as the source filed them. No cut-off for these calls is given here.

The target of experiment [1] is T1, Procathepsin L (Homo sapiens, UniProt P07711). As to the kind of experiment: Inhibition of human cathepsin L.
Target sequence in this assay (P07711 whole entry): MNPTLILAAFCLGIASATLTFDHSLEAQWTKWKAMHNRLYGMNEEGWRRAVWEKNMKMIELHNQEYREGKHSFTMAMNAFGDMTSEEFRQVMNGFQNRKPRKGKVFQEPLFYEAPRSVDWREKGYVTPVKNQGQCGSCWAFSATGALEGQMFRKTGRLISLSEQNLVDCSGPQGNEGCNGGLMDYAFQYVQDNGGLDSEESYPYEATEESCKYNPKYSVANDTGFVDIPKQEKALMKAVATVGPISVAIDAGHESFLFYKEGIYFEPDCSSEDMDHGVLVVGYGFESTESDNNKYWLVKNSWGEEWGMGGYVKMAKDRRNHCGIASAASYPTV
Experiment [2] addresses T2, Cathepsin S (Homo sapiens, UniProt P25774). As to the kind of experiment: Inhibition of human cathepsin S.
Target sequence in this assay (P25774 whole entry): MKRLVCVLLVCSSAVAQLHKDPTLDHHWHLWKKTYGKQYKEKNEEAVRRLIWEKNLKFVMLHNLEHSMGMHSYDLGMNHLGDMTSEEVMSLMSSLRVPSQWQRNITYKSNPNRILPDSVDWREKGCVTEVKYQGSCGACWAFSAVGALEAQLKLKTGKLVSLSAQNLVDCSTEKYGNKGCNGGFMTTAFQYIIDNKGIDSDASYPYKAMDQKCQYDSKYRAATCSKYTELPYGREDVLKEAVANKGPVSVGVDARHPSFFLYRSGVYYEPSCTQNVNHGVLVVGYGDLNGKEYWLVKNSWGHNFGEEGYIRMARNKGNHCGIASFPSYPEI
Another experiment deals with Cathepsin B (Homo sapiens, UniProt P07858). As to the kind of experiment: Inhibition of human cathepsin B.
For another experiment, the target named is T3, Cathepsin K (Homo sapiens, UniProt P43235).
T3 sequence (P43235 whole entry): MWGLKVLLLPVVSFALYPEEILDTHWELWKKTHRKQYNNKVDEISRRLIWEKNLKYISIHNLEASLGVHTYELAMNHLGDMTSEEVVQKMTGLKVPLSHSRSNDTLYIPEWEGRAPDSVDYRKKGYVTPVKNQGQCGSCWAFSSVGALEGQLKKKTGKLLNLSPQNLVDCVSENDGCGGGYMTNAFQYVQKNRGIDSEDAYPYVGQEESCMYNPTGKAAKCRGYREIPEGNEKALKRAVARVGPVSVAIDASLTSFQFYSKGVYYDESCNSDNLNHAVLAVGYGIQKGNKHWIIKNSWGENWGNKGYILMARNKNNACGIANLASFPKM
As to the kind of experiment: Inhibition of human cathepsin K.

Experiment [3] deals with PANC-1. As to the kind of experiment: Antiproliferative activity against human PANC-1 cells assessed as effect on cathepsin L mRNA expression level at 6.25 to 25 uM incubated for 48 hrs by RT-PCR analysis. Format: functional, cell-based. The note with it: dose 6.25-25 µM.
The target of experiment [4] is T1, Procathepsin L. As to the kind of experiment: Inhibition of cathepsin L activity in human BXPC-3 cells at 6.25 to 25 uM incubated for 48 hrs by fluorescence-based assay. Format: cell-based. The note with it: dose 6.25-25 µM.
Target sequence in this assay (P07711 114-333 limits assumed): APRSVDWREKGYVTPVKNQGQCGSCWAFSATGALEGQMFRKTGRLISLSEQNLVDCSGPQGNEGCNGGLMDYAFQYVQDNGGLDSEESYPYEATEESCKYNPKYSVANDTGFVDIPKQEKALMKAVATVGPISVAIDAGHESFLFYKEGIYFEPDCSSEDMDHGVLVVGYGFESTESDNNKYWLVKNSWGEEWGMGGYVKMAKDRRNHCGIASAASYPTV
Experiment [5] deals with BXPC-3. As to the kind of experiment: Antiproliferative activity against human BxPC-3 cells assessed as reduction of cell viability at <25 uM by MTT assay. Type of experiment: functional.
Experiment [6] has as its system PANC-1. As to the kind of experiment: Antimetastatic activity in human PANC-1 cells assessed as reduction in cell migration at 6.25 to 25 uM incubated for 48 hrs by wound healing assay. Format: functional, cell-based. Conditions: dose 6.25-25 µM.
Experiment [7] has as its system BXPC-3. As to the kind of experiment: Antiproliferative activity against human BxPC-3 cells assessed as effect on cathepsin L mRNA expression level at 6.25 to 25 uM incubated for 48 hrs by RT-PCR analysis. Conditions: dose 6.25-25 µM. Type of experiment: functional, cell-based.
Experiment [8] has as its system PANC-1. As to the kind of experiment: Antiproliferative activity against human PANC-1 cells assessed as reduction of cell viability at <25 uM by MTT assay. Format: functional. Background: Formazan colour is commonly taken as a measure of viable cells.
For experiment [9], the system named is BXPC-3. As to the kind of experiment: Anti-invasive activity in human BXPC-3 cells assessed as reduction in cell invasion at 6.25 to 25 uM incubated for 24 hrs by crystal violet staining based transwell migration assay. Format: functional. The note with it: dose 6.25-25 µM.
Experiment [10] addresses T2, Cathepsin S. As to the kind of experiment: Inhibition of cathepsin S activity in human BXPC-3 cells at 6.25 to 25 uM incubated for 48 hrs by fluorescence-based assay. Format: cell-based. The note with it: dose 6.25-25 µM.
Target sequence in this assay (P25774 115-331 limits assumed): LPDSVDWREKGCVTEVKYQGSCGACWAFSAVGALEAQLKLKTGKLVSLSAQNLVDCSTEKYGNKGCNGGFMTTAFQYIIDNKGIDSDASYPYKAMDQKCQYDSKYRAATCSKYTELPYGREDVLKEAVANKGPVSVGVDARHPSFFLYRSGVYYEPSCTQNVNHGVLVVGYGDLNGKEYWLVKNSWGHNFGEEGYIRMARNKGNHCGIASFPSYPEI
Experiment [11] has as its system BXPC-3. As to the kind of experiment: Antimetastatic activity in human BXPC-3 cells assessed as reduction in cell migration at 6.25 to 25 uM incubated for 48 hrs by wound healing assay. Format: functional, cell-based. The note with it: dose 6.25-25 µM.
Experiment [12] has as its target T1, Procathepsin L. As to the kind of experiment: Inhibition of cathepsin L activity in human PANC-1 cells at 6.25 to 25 uM incubated for 48 hrs by fluorescence-based assay. Type of experiment: cell-based. Conditions: dose 6.25-25 µM.
Target sequence in this assay (P07711 114-333 limits assumed): as the sequence (P07711 114-333 limits assumed) above
Experiment [13] addresses T2, Cathepsin S. As to the kind of experiment: Inhibition of cathepsin S activity in human PANC-1 cells at 6.25 to 25 uM incubated for 48 hrs by fluorescence-based assay. Format: cell-based. The note with it: dose 6.25-25 µM.
Target sequence in this assay (P25774 115-331 limits assumed): as the sequence (P25774 115-331 limits assumed) above
Experiment [14] deals with PANC-1. As to the kind of experiment: Anti-invasive activity in human PANC-1 cells assessed as reduction in cell invasion at 6.25 to 25 uM incubated for 24 hrs by crystal violet staining based transwell migration assay. Format: functional. Conditions: dose 6.25-25 µM.

By IC50 is commonly meant the concentration that gives 50% inhibition. The low end stands for greater potency, the high end for weaker potency. On to `N#Cc1ccccc1N1CCN(C[C@@H](O)COC[C@H](Cc2ccccc2)NC(=O)C2CCN(C(=O)OCc3ccccc3)CC2)CC1`, for which the concentration for half-maximal inhibition (IC50) against Procathepsin L [1] is 19.5 µM; against Cathepsin S [2] it was 22.7 µM; on Cathepsin B, greater than 100 µM; against Cathepsin K, greater than 100 µM.
Consider `COc1cccc(/C=C/C(=O)NC[C@@H](Cc2ccccc2)NS(=O)(=O)c2ccc(Br)cc2)c1`, for which the IC50 on Procathepsin L [1] is 23.9 µM; at Cathepsin S [2], 41 µM; against Cathepsin B, greater than 100 µM; at Cathepsin K, greater than 100 µM.
`N#Cc1ccccc1N1CCN(C[C@@H](O)COC[C@@H](Cc2ccccc2)NC(=O)C2CCN(C(=O)OCc3ccccc3)CC2)CC1`: the IC50 against Procathepsin L [1], against Cathepsin S [2], against Cathepsin B and against Cathepsin K was greater than 100 µM in each case.
With `COc1cccc(/C=C/C(=O)NC[C@H](Cc2ccccc2)NS(=O)(=O)c2ccc(C(F)(F)F)cc2)c1`, the half-inhibitory concentration (IC50) on Procathepsin L [1], on Cathepsin S [2], against Cathepsin B and on Cathepsin K was greater than 100 µM throughout.
Turning to `N#Cc1ccccc1N1CCN(C[C@@H](O)COC[C@H](Cc2ccccc2)NC(=O)c2ccncc2)CC1`, the IC50 at Procathepsin L [1] was 18.6 µM; against Cathepsin S [2] it was 28.8 µM; against Cathepsin B, greater than 100 µM; against Cathepsin K it was greater than 100 µM.
With `N#Cc1ccccc1N1CCN(C[C@H](O)COC[C@@H](Cc2ccccc2)NC(=O)C2CCN(C(=O)OCc3ccccc3)CC2)CC1`, the IC50 against Procathepsin L [1], on Cathepsin S [2], against Cathepsin B and against Cathepsin K was greater than 100 µM in each case.
As to `COc1ccc(/C=C/C(=O)NC[C@H](Cc2ccccc2)NS(=O)(=O)c2ccc(C(F)(F)F)cc2)cc1OC`, the IC50 on Procathepsin L [1], at Cathepsin S [2], on Cathepsin B and against Cathepsin K was greater than 100 µM each time.
Turning to `N#Cc1ccccc1N1CCN(C[C@@H](O)COC[C@H](Cc2ccccc2)NS(=O)(=O)c2ccc(C(F)(F)F)cc2)CC1`, the IC50 against Procathepsin L [1] was 45.9 µM; at Cathepsin S [2], 29.2 µM; against Cathepsin B, greater than 100 µM; against Cathepsin K, greater than 100 µM.
Regarding `N#Cc1ccccc1N1CCN(C[C@H](O)COC[C@H](Cc2ccccc2)NS(=O)(=O)c2ccc(C(F)(F)F)cc2)CC1`, the IC50 is 41.1 µM at Procathepsin L [1], 30.7 µM against Cathepsin S [2], greater than 100 µM against Cathepsin B and greater than 100 µM on Cathepsin K.
In the case of `N#Cc1ccccc1N1CCN(C[C@H](O)COC[C@H](Cc2ccccc2)NC(=O)c2ccncc2)CC1`, the IC50 against Procathepsin L [1] was 9.37 µM; on Cathepsin S [2], 16.1 µM; on Cathepsin B, greater than 100 µM; at Cathepsin K it was greater than 100 µM.
Take `N#Cc1ccccc1N1CCN(C[C@H](O)COC[C@@H](Cc2ccccc2)NS(=O)(=O)c2ccc(C(F)(F)F)cc2)CC1`: the IC50 is 40.7 µM against Procathepsin L [1], 40.4 µM at Cathepsin S [2], greater than 100 µM on Cathepsin B and greater than 100 µM at Cathepsin K.
Turning to `N#Cc1ccccc1N1CCN(C[C@@H](O)COC[C@@H](Cc2ccccc2)NS(=O)(=O)c2ccc(Br)cc2)CC1`, the IC50 is 4.1 µM on Procathepsin L [1], 1.79 µM against Cathepsin S [2], greater than 100 µM at Cathepsin B and greater than 100 µM against Cathepsin K. Besides, the result with PANC-1 [3] and in the experiment on BXPC-3 [7] was inactive. Further, the inhibition result on Procathepsin L [4], at Cathepsin S [10], at Procathepsin L [12] and on Cathepsin S [13] was “Dose-Dependent Effect” throughout. Besides, the Activity with BXPC-3 [5] is 100%; with PANC-1 [6], “Dose-Dependent Effect”; with PANC-1 [8], 100%; in the experiment on BXPC-3 [9] it was “Dose-Dependent Effect”; in the experiment on BXPC-3 [11], “Dose-Dependent Effect”; in the experiment on PANC-1 [14] it was “Dose-Dependent Effect”.
Take `N#Cc1ccccc1N1CCN(C[C@@H](O)COC[C@@H](Cc2ccccc2)NC(=O)c2ccncc2)CC1`: the concentration for half-maximal inhibition (IC50) at Procathepsin L [1] is 29.8 µM; against Cathepsin S [2] it was 48.9 µM; on Cathepsin B, greater than 100 µM; against Cathepsin K it was greater than 100 µM.
For the compound `COc1ccc(/C=C/C(=O)NC[C@H](Cc2ccccc2)NS(=O)(=O)c2ccc(Br)cc2)cc1OC`, the IC50 on Procathepsin L [1], against Cathepsin S [2], against Cathepsin B and against Cathepsin K was greater than 100 µM throughout.
Turning to `N#Cc1ccccc1N1CCN(C[C@@H](O)COC[C@@H](Cc2ccccc2)NS(=O)(=O)c2ccc(C(F)(F)F)cc2)CC1`, the IC50 was 10.5 µM at Procathepsin L [1], 22.3 µM against Cathepsin S [2], greater than 100 µM on Cathepsin B and greater than 100 µM against Cathepsin K.
For the compound `N#Cc1ccccc1N1CCN(C[C@H](O)COC[C@@H](Cc2ccccc2)NS(=O)(=O)c2ccc(Br)cc2)CC1`, the IC50 is 7.5 µM at Procathepsin L [1], 4.38 µM against Cathepsin S [2], greater than 100 µM on Cathepsin B and greater than 100 µM at Cathepsin K.
`COc1cccc(/C=C/C(=O)NC[C@H](Cc2ccccc2)NS(=O)(=O)c2ccc(Br)cc2)c1`: the half-inhibitory concentration (IC50) against Procathepsin L [1], on Cathepsin S [2], against Cathepsin B and on Cathepsin K was greater than 100 µM throughout.
`N#Cc1ccccc1N1CCN(C[C@H](O)COC[C@H](Cc2ccccc2)NS(=O)(=O)c2ccc(Br)cc2)CC1`: the IC50 against Procathepsin L [1] is 8.53 µM; against Cathepsin S [2], 7.72 µM; against Cathepsin B, greater than 100 µM; against Cathepsin K, greater than 100 µM.
`N#Cc1ccccc1N1CCN(C[C@@H](O)COC[C@H](Cc2ccccc2)NS(=O)(=O)c2ccc(Br)cc2)CC1`: the IC50 at Procathepsin L [1] was 5.47 µM; against Cathepsin S [2] it was 5.46 µM; against Cathepsin B, greater than 100 µM; against Cathepsin K, greater than 100 µM.
`O=C(OC[C@@H](Cc1ccccc1)NS(=O)(=O)c1ccc(Br)cc1)[C@@H](Cc1ccccc1)NS(=O)(=O)c1ccccc1`: the IC50 at Procathepsin L [1] is 6.03 µM; on Cathepsin S [2], 5.02 µM; on Cathepsin B, greater than 100 µM; against Cathepsin K, greater than 100 µM.
Consider `N#Cc1ccccc1N1CCN(C[C@H](O)COC[C@H](Cc2ccccc2)NC(=O)C2CCN(C(=O)OCc3ccccc3)CC2)CC1`, for which the 50% inhibitory concentration (IC50) on Procathepsin L [1] was 14.5 µM; against Cathepsin S [2], 11.1 µM; against Cathepsin B, greater than 100 µM; against Cathepsin K, greater than 100 µM.
In the case of `COc1cccc(/C=C/C(=O)NC[C@@H](Cc2ccccc2)NS(=O)(=O)c2ccc(C(F)(F)F)cc2)c1`, the half-maximal inhibitory concentration (IC50) against Procathepsin L [1] is 51.7 µM; against Cathepsin S [2], 64.5 µM; against Cathepsin B, greater than 100 µM; against Cathepsin K, greater than 100 µM.
For the compound `COc1ccc(/C=C/C(=O)NC[C@@H](Cc2ccccc2)NS(=O)(=O)c2ccc(C(F)(F)F)cc2)cc1OC`, the 50% inhibitory concentration (IC50) against Procathepsin L [1] is 12.3 µM; at Cathepsin S [2], 21.2 µM; at Cathepsin B, greater than 100 µM; at Cathepsin K it was greater than 100 µM.
On to `COc1ccc(/C=C/C(=O)NC[C@@H](Cc2ccccc2)NS(=O)(=O)c2ccc(Br)cc2)cc1OC`, for which the IC50 against Procathepsin L [1], at Cathepsin S [2], at Cathepsin B and against Cathepsin K was greater than 100 µM throughout.
As to `N#Cc1ccccc1N1CCN(C[C@H](O)COC[C@@H](Cc2ccccc2)NC(=O)c2ccncc2)CC1`, the 50% inhibitory concentration (IC50) on Procathepsin L [1] was 46.2 µM; on Cathepsin S [2], 23.1 µM; at Cathepsin B, greater than 100 µM; against Cathepsin K it was greater than 100 µM.
